Laboratory results taken from patent US10093699B2, “Peptides with antimicrobial, anticancer and/or wound-healing promoting activities, pharmaceutical compositions containing the same, and use of the peptides with antimicrobial, anticancer and/or wound-healing promoting activities” (priority 2015, dated 2018).
≈ marks a conversion by molar mass, not a printed value. Where a SMILES comes first, the peptide text is derived from it. [ ]: non-standard residue; d: D form. 2Nal = N[C@@H](Cc1ccc2ccccc2c1)C(=O)O

Key:
Assay type in all cases: cell-based
[1] = tested on: Escherichia coli strain (ATCC 25922); assay: microbe, parasite or virus in culture; conditions: ATCC25922, E. coli ATCC 25922, LYM control, read-out: Minimum inhibitory concentration (MIC)
Method: (§1) Escherichia coli strain (ATCC 25922), Staphylococcus aureus subsp strain (ATCC 25923, methicillin-resistant), and Pseudomonas aeruginosa Migula strain (ATCC 27853, ampicillin-resistant) were used to test the antibacterial activity of the peptides. Bacteria were cultured in sterilized Mueller-Hinton (MH) culturing medium at 200 rpm and 37° C. for 8 hours.
(§2) After 8 hours culture, concentration of the inoculums were determined by measuring absorbance of optical density at 600 nm (OD 600=1, equal to approximately 10^8 CFU/mL) with UV/Visible spectrophotometer.
(§3) The antibacterial activities were determined by the standard broth microdilution method of National Committee for Clinical Laboratory Standards with the LYM broth. The LYM broth contains 5.4 mM KCl, 5.6 mM Na2HPO4, 0.5 mM MgSO4, and 1.0 mM sodium citrate. In addition, 0.4 mg of ZnCl2, 2.0 mg of FeCl3. 6H2O, 0.1 mg of CuSO4. 5H2O, 0.1 mg of MnSO4.H2O, 0.1 mg of Na2B4O7.10H2O, 700 mg of amino acid mixtures without tryptophan (Clontech), and 20 mg of L-Tryptophan were added per liter of medium. A vitamin mixture (100×, Sigma) and glucose at final concentration of 2% were also added.
(§4) 1 μl peptide solutions (ranging from 5000 μg/ml to 78 μg/ml in serial dilution) was prepared and mixed with 99 μl inoculum (5×10^5 CFU/ml) in polypropylene 96-well plate. The turbidity at OD 600 nm was measured by ELISA plate reader (Thermo Max, Molecular Devices, Sunnyvale, Calif.). The absorbance of culture medium and inoculum suspension without peptides were used as the negative and positive control, respectively. The minimum inhibitory concentration (MIC) value is the lowest concentration of peptide at which there is no obvious growth (equal or more than 90%). […] All peptides were tested in triplicate.

[2] = tested on: Staphylococcus aureus subsp strain (ATCC 25923, methicillin-resistant); assay: microbe, parasite or virus in culture
Method: as §1, §2, §3, §4

human fibroblast (HFW) = assay: MTT cytotoxicity to normal fibroblasts; conditions: MTT assay
Method: Human lung cancer line PC9 and A549, oral squamous cell carcinoma cell line OECM-1 were cultured in RPMI medium supplemented with 10% fetal bovine serum and antibiotic. Human tongue carcinoma cell line SAS, oral cancer cell line C9, and human diploid fibroblast (HFW) were cultured in DMEM medium supplemented with 10% fetal bovine serum and antibiotic. Cells were cultured in a humidified incubator containing 5% CO2 at 37° C.
The MTT assay was employed to determine the in vitro cytotoxicity. All cancer cell lines were seeded in 96-well plate with concentration 5000 cells/100 μl/well and incubated for 24 hours. HFW was seeded with 8000 cells/100 μl/well.
After medium was removed, 100 μl fresh medium containing peptide (ranging from 50 μM to 3.13 μM, HFW was treated with 75 μM and 100 μM peptide additionally) was added to the wells. Following 3, 12 or 24 hour incubation, fresh medium with MTT (0.5 mg/ml) was replaced and incubated for 3 hours. After medium/MTT was removed, DMSO was added at 100 μl for dissolving the formazan crystal. Cell survival rate was calculated by measuring the absorbance at 540 nm using Multi-labeled Microplate Reader (VICTOR3). For cancer cells, medium mixed with H2O2 (aq) represented positive control (all cells died) while medium only represented negative control. For normal cells, medium only represented positive control (all cells lived) while medium mixed with H2O2 (aq) represented negative control (all cells died).
The cytotoxicities of S1 and its analogs on human lung cancer cells (i.e, PC9, PC9-G and A549), human oral cancer cells (i.e, C9, OECM-1, and SAS), and human fibroblast (HFW) were evaluated by MTT assay for 3, 12 and 24 hours.

| Compound | MIC [1] [mg/L] | MIC ([2]; Staphylococcus aureus, ATCC25923, S. aureus ATCC 25923, LYM control, read-out: Minimum inhibitory concentration (MIC)) [mg/L] | degrees of cytotoxicities to HFW (rank order) (human fibroblast (HFW)) | Minimum inhibitory concentration (MIC) ([2]; ATCC 25923, 8 h) [mg/L] |
| --- | --- | --- | --- | --- |
| CC1(C)S[C@@H]2[C@H](NC(=O)[C@H](N)c3ccccc3)C(=O)N2[C@H]1C(=O)O [AP, Ampicillin, reference compound] | 25 (≈ 71.5 µM) | 3.1 (≈ 8.87 µM) |  |  |
| CC(=O)N[C@@H](CCCCN)C(=O)N[C@@H](CCCCN)C(=O)N[C@@H](CCCCN)C(=O)N[C@@H](CCCCN)C(=O)N[C@@H](CCCCN)C(=O)N[C@@H](CCCCN)C(=O)N[C@@H](Cc1ccc2ccccc2c1)C(=O)N[C@@H](Cc1ccc2ccccc2c1)C(=O)N[C@@H](CCCCN)C(=O)N[C@@H](CCCCN)C(=O)N[C@@H](Cc1c[nH]c2ccccc12)C(=O)N[C@@H](CCCNC(=N)N)C(=O)N[C@@H](CCCCN)C(=O)N[C@@H](Cc1c[nH]c2ccccc12)C(=O)N[C@@H](CC(C)C)C(=O)N[C@@H](C)C(=O)N[C@@H](CCCCN)C(=O)N[C@@H](CCCCN)C(N)=O [K6-Nal2-S1, Ac-KKKKKK-Nal-Nal-KKWRKWLAKK-NH2] (Ac-KKKKKK[2Nal][2Nal]KKWRKWLAKK-NH2) |  |  | S1 peptide<K4R2-Nal2-S1 peptide<K6-Nal2-S1 peptide<Nal2-S1 peptide |  |
| CC(=O)N[C@@H](Cc1ccc2ccccc2c1)C(=O)N[C@@H](Cc1ccc2ccccc2c1)C(=O)N[C@@H](CCCCN)C(=O)N[C@@H](CCCCN)C(=O)N[C@@H](Cc1c[nH]c2ccccc12)C(=O)N[C@@H](CCCNC(=N)N)C(=O)N[C@@H](CCCCN)C(=O)N[C@@H](Cc1c[nH]c2ccccc12)C(=O)N[C@@H](CC(C)C)C(=O)N[C@@H](C)C(=O)N[C@@H](CCCCN)C(=O)N[C@@H](CCCCN)C(N)=O [Nal2-S1, Ac-Nal-Nal-KKWRKWLAKK-NH2] (Ac-[2Nal][2Nal]KKWRKWLAKK-NH2) |  |  | S1 peptide<K4R2-Nal2-S1 peptide<K6-Nal2-S1 peptide<Nal2-S1 peptide | 3.1 (≈ 1.72 µM) |
| Ac-KKWRKWLAKK-NH2 [S1, Ac-KKWRKWLAKK-NH2, reference compound] |  |  | S1 peptide<K4R2-Nal2-S1 peptide<K6-Nal2-S1 peptide<Nal2-S1 peptide |  |
